{"source": "paper PMC10202811", "about": "(Nature Medicine, 2023)", "tested_on": "ALK-driven refractory or relapsed neuroblastoma", "assay": "Functional imaging response: MIBG Curie score / FDG-PET avidity", "format": "in vivo, human", "parameters": "key to Symbol to indicate Soft tissue became MIBG non-avid: *: Symbol to indicate Soft tissue became MIBG non-avid", "settings": "for complete resolution of MIBG avidity (CR) in bone and/or soft tissue: patients with BOR of SD/MR/PR", "from_the_text": "Patients underwent disease staging at baseline, after courses 2 and 4 and then every four courses thereafter. The primary endpoint for response analysis is the BOR, defined as the best response observed before progression or start of another therapy. […] Response was graded according to the NANT response criteria version 2.0 (ref. [26]), modified from the International Neuroblastoma Response Criteria (INRC)[48]. NANT response criteria use three components for assessment of overall response: soft tissue response assessed by anatomical imaging and avidity on MIBG or FDG-PET; bone response assessed by uptake in bone by MIBG or bone involvement on FDG-PET; and bone marrow response assessed by morphology on bilateral aspirates and biopsies. Each response component (soft tissue, bone and bone marrow) are graded as CR, PR, SD and PD. Overall response grading is defined as: CR, if a response of CR in all components that are involved at baseline; PR, if a response of PR or better in all involved components; MR, if a response of PR or better but with at least one involved component as SD and no PD in all involved components; SD, if a response of SD in all involved components; and PD, if a response of PD in at least one involved component. The overall response definitions are identical to overall responses (CR, PR, SD and PD) as defined by the INRC. Response assessment is initially performed by sites and reviewed against source documents by NANT operations. Additional blinded central review of all radiological or pathological data was conducted for patients with overall PR or better and, in addition, radiologic pathological data of all involved sites for patients with MR to assign the final BOR on this study. Response by MIBG was determined using the Curie criteria. RR was determined as the proportion of patients with BOR of CR and PR in each cohort. Based on an international consensus by the National Cancer Institute Clinical Trials Planning Committee to refine tumor site eligibility criteria and evaluation of disease response for early-phase clinical trials in children with high-risk recurrent, refractory and progressive neuroblastoma, we also performed an ad hoc analysis to determine a modified RR that includes the proportion of patients with BOR of CR, PR and MR.", "note": "Several values for one entry are separate records, joined by “and”; a condition that tells them apart may be missing. Equal values may be shown once.", "data": [{"compound": "C[C@H]1Oc2cc(cnc2N)-c2c(nn(C)c2C#N)CN(C)C(=O)c2ccc(F)cc21", "note": "[Lorlatinib, (10R)-7-amino-12-fluoro-2,10,16-trimethyl-15-oxo-10,15,16,17-tetrahydro-2H-8,4-(metheno)pyrazolo[4,3-h][2,5,11]-benzoxadiazacyclotetradecine-3-carbonitrile]", "values": [{"measurement": "responders achieving MIBG complete responses", "setting": "13 of 27 responders, all cohorts", "value": 48, "unit": "%"}, {"measurement": "MIBG Curie Score % change from baseline", "setting": "Cohort A1, individual patient", "value": "-87% and -94% and -100% and 600% and 50% and 40% and 33% and -10% and -18% and -70%"}, {"measurement": "Symbol to indicate Soft tissue became MIBG non-avid", "setting": "Cohort A1, individual patient", "value": "*"}, {"measurement": "MIBG Curie Score % change from baseline", "setting": "Cohort A2, individual patient", "value": "-4.76% and -25% and -44% and -56% and -67% and -95% and -100%"}, {"measurement": "Symbol to indicate Soft tissue became MIBG non-avid", "setting": "Cohort A2, individual patient", "value": "*"}, {"measurement": "MIBG Curie Score % change from baseline", "setting": "Cohort B2, individual patient", "value": "100% and 56% and 1% and -33% and -73% and -75% and -100%"}, {"measurement": "Symbol to indicate Soft tissue became MIBG non-avid", "setting": "Cohort B2, individual patient", "value": "*"}, {"measurement": "Curie Score Percent Change", "setting": "Patient ID 2", "value": -100}, {"measurement": "Minimum Curie", "setting": "Patient ID 2, Enrollment Curie 5", "value": 0}, {"measurement": "Curie Score Percent Change", "setting": "Patient ID 3", "value": -94.44}, {"measurement": "Minimum Curie", "setting": "Patient ID 3, Enrollment Curie 18", "value": 1}, {"measurement": "Curie Score Percent Change", "setting": "Patient ID 9", "value": -10}, {"measurement": "Minimum Curie", "setting": "Patient ID 9, Enrollment Curie 10", "value": 9}, {"measurement": "Curie Score Percent Change", "setting": "Patient ID 10", "value": 50}, {"measurement": "Minimum Curie", "setting": "Patient ID 10, Enrollment Curie 4", "value": 6}, {"measurement": "Curie Score Percent Change", "setting": "Patient ID 11", "value": -100}, {"measurement": "Minimum Curie", "setting": "Patient ID 11, Enrollment Curie 1", "value": 0}, {"measurement": "Curie Score Percent Change", "setting": "Patient ID 12", "value": 33.33}, {"measurement": "Minimum Curie", "setting": "Patient ID 12, Enrollment Curie 6", "value": 8}, {"measurement": "Curie Score Percent Change", "setting": "Patient ID 17", "value": -86.66}, {"measurement": "Minimum Curie", "setting": "Patient ID 17, Enrollment Curie 15", "value": 2}, {"measurement": "Curie Score Percent Change", "setting": "Patient ID 21", "value": -100}, {"measurement": "Minimum Curie", "setting": "Patient ID 21, Enrollment Curie 3", "value": 0}, {"measurement": "Curie Score Percent Change", "setting": "Patient ID 25", "value": -100}, {"measurement": "Minimum Curie", "setting": "Patient ID 25, Enrollment Curie 2", "value": 0}, {"measurement": "Curie Score Percent Change", "setting": "Patient ID 26", "value": -18.18}, {"measurement": "Minimum Curie", "setting": "Patient ID 26, Enrollment Curie 11", "value": 9}, {"measurement": "Curie Score Percent Change", "setting": "Patient ID 30", "value": 40}, {"measurement": "Minimum Curie", "setting": "Patient ID 30, Enrollment Curie 5", "value": 7}, {"measurement": "Curie Score Percent Change", "setting": "Patient ID 31", "value": -100}, {"measurement": "Minimum Curie", "setting": "Patient ID 31, Enrollment Curie 3", "value": 0}, {"measurement": "Curie Score Percent Change", "setting": "Patient ID 32", "value": 600}, {"measurement": "Minimum Curie", "setting": "Patient ID 32, Enrollment Curie 2", "value": 14}, {"measurement": "Curie Score Percent Change", "setting": "Patient ID 38", "value": -100}, {"measurement": "Minimum Curie", "setting": "Patient ID 38, Enrollment Curie 3", "value": 0}, {"measurement": "Curie Score Percent Change", "setting": "Patient ID 40", "value": -70}, {"measurement": "Minimum Curie", "setting": "Patient ID 40, Enrollment Curie 10", "value": 3}, {"measurement": "complete resolution of MIBG avidity (CR) in bone and/or soft tissue", "setting": "A1, five of eight", "value": 63, "unit": "%"}, {"measurement": "complete resolution of MIBG avidity (CR) in bone and/or soft tissue", "setting": "A2, three of ten", "value": 30, "unit": "%"}, {"measurement": "complete resolution of MIBG avidity (CR) in bone and/or soft tissue", "setting": "B2, one of four", "value": 25, "unit": "%"}, {"measurement": "complete resolution of metabolic activity in soft tissue lesions by MIBG/FDG-PET", "setting": "ten of 22 patients with avid soft tissue lesions and BOR of SD/MR/PR", "value": 45, "unit": "%"}]}]}
